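Protocol summary: plate cells (96-well), add compound at 5 concentrations, incubate 48 h, interpolate endpoints linearly. GI50 is the concentration that inhibits growth by half.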 Active and inactive are the calls of the source. No stated cut-off is given here; in the data, active = GI50 up to about 1.1 µM and inactive = higher.
What was measured:
Experiment in all cases: NCI tumour cell line growth inhibition, 48 h
Hs-578T = system: Hs-578T
U-251 = system: U-251
SK-MEL-28 = system: SK-MEL-28
SK-OV-3 = system: SK-OV-3
EKVX = system: EKVX
MDA-N = system: MDA-N
OVCAR-3 = system: OVCAR-3
ACHN = system: ACHN
MCF7 = system: MCF7
MDA-MB-231 = system: MDA-MB-231
SN12C = system: SN12C
UO-31 = system: UO-31
TK-10 = system: TK-10
NCI-H23 = system: NCI-H23
SF-295 = system: SF-295
UACC-62 = system: UACC-62
HT-29 = system: HT-29
SF-268 = system: SF-268
NCI/ADR-RES = system: NCI/ADR-RES
SNB-75 = system: SNB-75

Measured: GI50

O=c1oc2ccccc2c(Nc2ccc3c(c2)Sc2ccccc2O3)c1[N+](=O)[O-]
inactive: Hs-578T 30.9 µM | U-251 18.5 µM | SK-MEL-28 16.2 µM | SK-OV-3 35.2 µM | EKVX 22.9 µM | MDA-N 30.9 µM | OVCAR-3 17.1 µM | ACHN 19.6 µM | MCF7 18.7 µM | MDA-MB-231 21 µM | SN12C 28.9 µM | UO-31 25.6 µM | TK-10 23.6 µM | NCI-H23 25.9 µM | SF-295 22.1 µM | UACC-62 14.1 µM | HT-29 23.9 µM | SF-268 33.6 µM | NCI/ADR-RES 26.9 µM | SNB-75 23.2 µM

CCOC(=O)C1CN(C2CC2)CCC1=O (stereo not given)
inactive: Hs-578T > 100 µM | U-251 > 100 µM | SK-MEL-28 > 100 µM | SK-OV-3 > 100 µM | EKVX > 100 µM | MDA-N > 100 µM | OVCAR-3 > 100 µM | ACHN > 100 µM | MCF7 > 100 µM | MDA-MB-231 > 100 µM | SN12C > 100 µM | UO-31 > 100 µM | TK-10 > 100 µM | NCI-H23 > 100 µM | SF-295 > 100 µM | UACC-62 > 100 µM | HT-29 > 100 µM | SF-268 > 100 µM | NCI/ADR-RES > 100 µM | SNB-75 > 100 µM

NCC1Nc2ccccc2[C@@H](O)C1O (stereo not given in full)
inactive: Hs-578T > 100 µM | U-251 > 100 µM | SK-MEL-28 > 100 µM | SK-OV-3 > 100 µM | EKVX > 100 µM | MDA-N > 100 µM | OVCAR-3 > 100 µM | ACHN > 100 µM | MCF7 > 100 µM | MDA-MB-231 > 100 µM | SN12C > 100 µM | UO-31 > 100 µM | TK-10 > 100 µM | NCI-H23 > 100 µM | SF-295 > 100 µM | UACC-62 > 100 µM | HT-29 > 100 µM | SF-268 > 100 µM | NCI/ADR-RES > 100 µM | SNB-75 > 100 µM

Reference: ChEMBL document CHEMBL1201862, “PubChem BioAssay data set” (2004)
